Like-named read-outs stand apart in the source and are kept apart here. Bridge positions count the residues as written; N and C are the ends. Peptide text beside a SMILES is read from it. * marks the point of attachment. PEG12 = NCCOCCOCCOCCOCCOCCOCCOCCOCCOCCOCCOCCOCCC(=O)O; Biotin = O=C1N[C@H]2[C@H](CS[C@H]2CCCCC(=O)*)N1
How the values were obtained:
[1] = biological target: neutral endopeptidase (NEP) (Homo sapiens, UniProt P08473); experiment: In vitro neutral endopeptidase (NEP) cleavage assay; conditions: human, pH 7
Method: To determine the effects of amino acid substitutions, amino acid extensions, backbone modifications, side chain modifications and PEGylation on the susceptibility of CNP variants to neutral endopeptidase (NEP) cleavage, peptide cleavage assays were carried out using an in vitro assay that monitored disappearance of the non-cleaved CNP variant.
Recombinant human NEP (1 ug/mL final concentration) was added to 100 uM CNP variant diluted in 0.1 M Tris, pH 7. The reaction mixture was incubated at 37° C. for various periods of time, and the reaction was quenched with EDTA (10 mM final) followed by heat denaturation. The reaction mixture was reduced and then the reaction products were analyzed using HPLC and mass spectroscopy. The half-life of the CNP variant was calculated based on the disappearance of intact CNP variant over time.

NPR-B = biological target: T1, NPR-B (Mus musculus, UniProt Q6VVW5); experiment: Stimulation of cGMP production in NIH3T3 cells; assay type: cell-based, Murine; conditions: for cGMP response relative to 1 uM CNP22 (%) at 0.01 µM: read-out: cGMP Response rel. to 1 uM CNP22, 10 nM; for cGMP response relative to 1 uM CNP22 (%) at 1 µM: read-out: cGMP Response rel. to 1 uM CNP22, 1 uM
T1 construct: Murine NIH3T3 cells express endogenously the CNP signaling receptor, NPR-B; endogenous in cells; host or cells: NIH3T3 (murine fibroblasts)
T1 sequence (Q6VVW5 17-1047): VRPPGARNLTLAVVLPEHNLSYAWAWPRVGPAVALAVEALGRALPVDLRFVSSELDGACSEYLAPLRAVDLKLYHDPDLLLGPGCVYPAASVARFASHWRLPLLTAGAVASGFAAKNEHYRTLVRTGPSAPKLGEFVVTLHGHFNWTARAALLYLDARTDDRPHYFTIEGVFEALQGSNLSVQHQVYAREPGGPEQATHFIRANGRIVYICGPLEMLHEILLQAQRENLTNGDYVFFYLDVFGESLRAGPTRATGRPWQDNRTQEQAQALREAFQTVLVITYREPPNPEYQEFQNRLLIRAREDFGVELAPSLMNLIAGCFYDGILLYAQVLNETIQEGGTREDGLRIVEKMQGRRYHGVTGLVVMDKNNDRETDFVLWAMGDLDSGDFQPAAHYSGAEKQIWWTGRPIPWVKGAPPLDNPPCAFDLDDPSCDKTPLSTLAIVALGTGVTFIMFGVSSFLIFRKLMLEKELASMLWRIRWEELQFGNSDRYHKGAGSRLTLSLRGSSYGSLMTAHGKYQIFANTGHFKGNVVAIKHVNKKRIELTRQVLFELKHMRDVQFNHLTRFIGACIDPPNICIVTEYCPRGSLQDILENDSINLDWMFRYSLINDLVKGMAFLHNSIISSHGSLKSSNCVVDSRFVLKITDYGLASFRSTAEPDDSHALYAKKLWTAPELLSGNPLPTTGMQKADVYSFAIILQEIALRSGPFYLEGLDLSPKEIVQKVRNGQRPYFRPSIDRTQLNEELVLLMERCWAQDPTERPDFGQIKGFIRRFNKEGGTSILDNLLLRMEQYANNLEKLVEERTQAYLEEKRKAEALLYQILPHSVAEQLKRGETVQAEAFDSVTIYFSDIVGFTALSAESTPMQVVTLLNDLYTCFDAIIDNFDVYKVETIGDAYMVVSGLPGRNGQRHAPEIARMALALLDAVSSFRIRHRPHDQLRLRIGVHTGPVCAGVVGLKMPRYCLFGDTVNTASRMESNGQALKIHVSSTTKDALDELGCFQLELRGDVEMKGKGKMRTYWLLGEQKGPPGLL

[2] = recombinant human neutral endopeptidase (NEP)
[3] = NIH3T3 cells, 10 nM natriuretic peptide, normalized to cell number and cGMP production with 1 uM wtCNP22
[4] = NIH3T3 cells, 1 uM natriuretic peptide, normalized to cell number and cGMP production with 1 uM wtCNP22

Chain of neutral endopeptidase (NEP) (P08473 whole entry): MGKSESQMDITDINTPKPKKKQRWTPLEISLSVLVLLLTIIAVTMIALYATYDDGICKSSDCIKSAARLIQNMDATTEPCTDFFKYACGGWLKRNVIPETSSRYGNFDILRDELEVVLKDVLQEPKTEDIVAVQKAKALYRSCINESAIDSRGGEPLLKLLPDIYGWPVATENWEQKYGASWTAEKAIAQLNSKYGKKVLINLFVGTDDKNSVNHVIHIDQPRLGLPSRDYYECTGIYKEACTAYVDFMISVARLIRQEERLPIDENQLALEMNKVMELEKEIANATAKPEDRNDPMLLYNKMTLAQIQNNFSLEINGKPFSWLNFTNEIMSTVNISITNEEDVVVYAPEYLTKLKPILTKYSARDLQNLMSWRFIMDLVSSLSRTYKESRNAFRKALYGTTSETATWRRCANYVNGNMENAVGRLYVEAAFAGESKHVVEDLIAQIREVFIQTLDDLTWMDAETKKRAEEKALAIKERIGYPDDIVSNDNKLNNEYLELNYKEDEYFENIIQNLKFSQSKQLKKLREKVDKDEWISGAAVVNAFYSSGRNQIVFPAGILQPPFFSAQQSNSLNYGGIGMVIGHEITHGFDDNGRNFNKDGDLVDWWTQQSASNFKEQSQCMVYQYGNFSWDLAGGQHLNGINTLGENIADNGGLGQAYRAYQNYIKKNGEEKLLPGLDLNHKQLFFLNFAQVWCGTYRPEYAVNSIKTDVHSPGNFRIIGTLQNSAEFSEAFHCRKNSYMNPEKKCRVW

Structure (SMILES)	half-life at 100 uM [1, 2] [h]	cGMP response relative to 1 uM CNP22 (%) at 0.01 µM (NPR-B; [3]) [%]	cGMP response relative to 1 uM CNP22 (%) at 1 µM (NPR-B; [4]) [%]	half-life at 100 uM [1] [h]	cGMP Response rel. to 1 uM CNP22, 10 nM (NPR-B; [3])	cGMP Response rel. to 1 uM CNP22, 1 uM (NPR-B; [4])	cGMP response relative to 1 uM CNP22 (%) at 0.01 µM (NPR-B; NIH3T3, […]) [%]	cGMP response relative to 1 uM CNP22 (%) at 1 µM (NPR-B; NIH3T3, […]) [%]
CC[C@H](C)[C@@H]1NC(=O)[C@H](CCCNC(=N)N)NC(=O)[C@H](CC(=O)O)NC(=O)[C@H](CC(C)C)NC(=O)[C@H](CCCCN)NC(=O)[C@H](CC(C)C)NC(=O)CNC(=O)[C@H](Cc2ccccc2)NC(=O)[C@@H](NC(=O)CNC(=O)[C@H](CCC(=O)O)NC(=O)[C@H](CO)NC(=O)[C@H](CC(C)C)NC(=O)[C@@H](N)CCC(=O)O)CSSC[C@@H](C(=O)O)NC(=O)CNC(=O)[C@H](CC(C)C)NC(=O)CNC(=O)[C@H](CO)NC(=O)[C@H](CCSC)NC(=O)[C@H](CO)NC(=O)CNC1=O [AT] (H-ELSEGCFGLKLDRIGSMSGLGC-OH; disulfide 6-22 (inferred); N-terminus and C-terminus assumed)	1	11	54					
CC[C@H](C)[C@@H]1NC(=O)[C@H](CCCNC(=N)N)NC(=O)[C@H](CC(=O)O)NC(=O)[C@H](CC(C)C)NC(=O)[C@H](CCCCN)NC(=O)[C@H](CC(C)C)NC(=O)CNC(=O)[C@H](Cc2ccccc2)NC(=O)[C@@H](NC(=O)CNC(=O)[C@H](CCCCN)NC(=O)[C@H](CO)NC(=O)[C@H](CC(C)C)NC(=O)CNC(=O)[C@H](CCCCN)NC(=O)[C@@H]2CCCN2C(=O)[C@H](CC(N)=O)NC(=O)[C@H](C)NC(=O)CNC(=O)[C@H](CCCCN)NC(=O)[C@H](Cc2ccc(O)cc2)NC(=O)[C@H](CCCCN)NC(=O)[C@H](CCCNC(=N)N)NC(=O)[C@H](C)NC(=O)[C@H](CC(N)=O)NC(=O)[C@@H]2CCCN2C(=O)[C@H](Cc2c[nH]cn2)NC(=O)[C@H](CCC(=O)O)NC(=O)[C@H](CCC(N)=O)NC(=O)CN)CSSC[C@@H](C(=O)O)NC(=O)CNC(=O)[C@H](CC(C)C)NC(=O)CNC(=O)[C@H](CO)NC(=O)[C@H](CCSC)NC(=O)[C@H](CO)NC(=O)CNC1=O [CS] (H-GQEHPNARKYKGANPKGLSKGCFGLKLDRIGSMSGLGC-OH; disulfide 22-38 (inferred); N-terminus and C-terminus assumed)		19	61	> 2.67				
CC[C@H](C)[C@@H]1NC(=O)[C@H](CCCNC(=N)N)NC(=O)[C@H](CC(=O)O)NC(=O)[C@H](CC(C)C)NC(=O)[C@H](CCCCN)NC(=O)[C@H](CC(C)C)NC(=O)CNC(=O)[C@H](Cc2ccccc2)NC(=O)[C@@H](NC(=O)CNC(=O)CNC(=O)[C@H](CO)NC(=O)[C@H](CC(C)C)NC(=O)CNC(=O)CCOCCOCCOCCOCCOCCOCCOCCOCCOCCOCCOCCOCCNC(=O)CCCC[C@@H]2SC[C@@H]3NC(=O)N[C@@H]32)CSSC[C@@H](C(=O)O)NC(=O)CNC(=O)[C@H](CC(C)C)NC(=O)CNC(=O)[C@H](CO)NC(=O)[C@H](CCSC)NC(=O)[C@H](CO)NC(=O)CNC1=O [(PEO12)-Biotin-CNP22, K4G] ({Biotin-PEG12}-GLSGGCFGLKLDRIGSMSGLGC-OH; disulfide 6-22; C-terminus assumed)				1.67			10	27
CC[C@H](C)[C@@H]1NC(=O)[C@H](CCCNC(=N)N)NC(=O)[C@H](CC(=O)O)NC(=O)[C@H](CC(C)C)NC(=O)[C@H](CCCCN)NC(=O)[C@H](CC(C)C)NC(=O)CNC(=O)[C@H](Cc2ccccc2)NC(=O)[C@@H](NC(=O)CNC(=O)[C@H](CCCNC(=N)N)NC(=O)[C@H](CO)NC(=O)[C@H](CC(C)C)NC(=O)CNC(=O)[C@H](CO)NC(=O)[C@H](CO)NC(=O)[C@H](CC(N)=O)NC(=O)[C@H](C)NC(=O)CN)CSSC[C@@H](C(=O)O)NC(=O)CNC(=O)[C@H](CC(C)C)NC(=O)CNC(=O)[C@H](CO)NC(=O)[C@H](CCSC)NC(=O)[C@H](CO)NC(=O)CNC1=O [CG] (H-GANSSGLSRGCFGLKLDRIGSMSGLGC-OH; disulfide 11-27 (inferred); N-terminus and C-terminus assumed)		27 ± 1	88 ± 1	1.58				
CC[C@H](C)[C@@H]1NC(=O)[C@H](CCCNC(=N)N)NC(=O)[C@H](CC(=O)O)NC(=O)[C@H](CC(C)C)NC(=O)[C@H](CCCCN)NC(=O)[C@H](CC(C)C)NC(=O)CNC(=O)[C@H](Cc2ccccc2)NC(=O)[C@@H](NC(=O)CNC(=O)[C@H](CCCCN)NC(=O)[C@H](CO)NC(=O)[C@H](CC(C)C)NC(=O)CNC(=O)CCOCCOCCOCCOCCOCCOCCOCCOCCOCCOCCOCCOC)CSSC[C@@H](C(=O)O)NC(=O)CNC(=O)[C@H](CC(C)C)NC(=O)CNC(=O)[C@H](CO)NC(=O)[C@H](CCSC)NC(=O)[C@H](CO)NC(=O)CNC1=O [PEO12-CNP22]		12 ± 7	57 ± 18	≥ 2.67				

Now from value to molecule, other results behind:

half-life at 100 uM [1, 2] [h]	cGMP response relative to 1 uM CNP22 (%) at 0.01 µM (NPR-B; [3]) [%]	cGMP response relative to 1 uM CNP22 (%) at 1 µM (NPR-B; [4]) [%]	half-life at 100 uM [1] [h]	cGMP Response rel. to 1 uM CNP22, 10 nM (NPR-B; [3])	cGMP Response rel. to 1 uM CNP22, 1 uM (NPR-B; [4])	Structure (SMILES)	cGMP response relative to 1 uM CNP22 (%) at 0.01 µM (NPR-B; NIH3T3, […]) [%]	cGMP response relative to 1 uM CNP22 (%) at 1 µM (NPR-B; NIH3T3, […]) [%]
1.33	59	121				CC[C@H](C)[C@@H]1NC(=O)[C@H](CCCNC(=N)N)NC(=O)[C@H](CC(=O)O)NC(=O)[C@H](CC(C)C)NC(=O)[C@H](CCCCN)NC(=O)[C@H](CC(C)C)NC(=O)CNC(=O)[C@H](Cc2ccccc2)NC(=O)[C@@H](NC(=O)CNC(=O)[C@H](CCCNC(=N)N)NC(=O)[C@H](CO)NC(=O)[C@H](CC(C)C)NC(=O)CN)CSSC[C@@H](C(=O)O)NC(=O)CNC(=O)[C@H](CC(C)C)NC(=O)CNC(=O)[C@H](CO)NC(=O)[C@H](CCSC)NC(=O)[C@H](CO)NC(=O)CNC1=O [AH] (H-GLSRGCFGLKLDRIGSMSGLGC-OH; disulfide 6-22 (inferred); N-terminus and C-terminus assumed)		
	59 ± 9	105 ± 20	1.08			CC[C@H](C)[C@@H]1NC(=O)[C@H](CCCNC(=N)N)NC(=O)[C@H](CC(=O)O)NC(=O)[C@H](CC(C)C)NC(=O)[C@H](CCCCN)NC(=O)[C@H](CC(C)C)NC(=O)CNC(=O)[C@H](Cc2ccccc2)NC(=O)[C@@H](NC(=O)CNC(=O)[C@H](CCCNC(=N)N)NC(=O)[C@H](CO)NC(=O)[C@H](CC(C)C)NC(=O)CNC(=O)[C@H](CCCNC(=N)N)NC(=O)[C@H](CCCNC(=N)N)NC(=O)[C@H](CC(N)=O)NC(=O)[C@H](C)NC(=O)CN)CSSC[C@@H](C(=O)O)NC(=O)CNC(=O)[C@H](CC(C)C)NC(=O)CNC(=O)[C@H](CO)NC(=O)[C@H](CCSC)NC(=O)[C@H](CO)NC(=O)CNC1=O [AY] (H-GANRRGLSRGCFGLKLDRIGSMSGLGC-OH; disulfide 11-27 (inferred); N-terminus and C-terminus assumed)		
			> 2.67	43 ± 15	97 ± 27	CC[C@H](C)[C@@H]1NC(=O)[C@H](CCCNC(=N)N)NC(=O)[C@H](CC(=O)O)NC(=O)[C@H](CC(C)C)NC(=O)[C@H](CCCCN)NC(=O)[C@H](CC(C)C)NC(=O)CNC(=O)[C@H](Cc2ccccc2)NC(=O)[C@@H](NC(=O)CNC(=O)[C@H](CCCCN)NC(=O)[C@H](CO)NC(=O)[C@H](CC(C)C)NC(=O)CNC(=O)[C@H](CCCCN)NC(=O)[C@H](CCCCN)NC(=O)[C@H](CC(N)=O)NC(=O)[C@H](C)NC(=O)CNC(=O)[C@H](CCCCN)NC(=O)[C@H](Cc2ccc(O)cc2)NC(=O)[C@H](CCCCN)NC(=O)[C@H](CCCNC(=N)N)NC(=O)[C@H](C)NC(=O)[C@H](CC(N)=O)NC(=O)[C@@H]2CCCN2C(=O)[C@H](Cc2c[nH]cn2)NC(=O)[C@H](CCC(=O)O)NC(=O)[C@@H](N)CCC(N)=O)CSSC[C@@H](C(=O)O)NC(=O)CNC(=O)[C@H](CC(C)C)NC(=O)CNC(=O)[C@H](CO)NC(=O)[C@H](CCSC)NC(=O)[C@H](CO)NC(=O)CNC1=O [BL]		

Reference: US8377884B2, “Variants of C-type natriuretic peptides” (Biomarin Pharmaceutical Inc., priority 2007, dated 2013)
